The target in series [1] is T1, Adrenergic β2 (Homo sapiens, UniProt P07550).
T1 construct: Eurofins (contract screening, SafetyScreen panel) PP223
The series is described as follows: Eurofins SafetyScreen panel. It is filed as binding.

For series [2], the target named is T2, Neuropeptide Y Y1 (Homo sapiens, UniProt P25929).
T2 construct: Eurofins (contract screening, SafetyScreen panel) PP223
The series is described as follows: Eurofins SafetyScreen panel. It is filed as binding.

For series [3], the target named is T3, Angiotensin AT1 (Homo sapiens, UniProt P30556).
T3 construct: Eurofins (contract screening, SafetyScreen panel) PP223
T3 sequence (P30556 whole entry): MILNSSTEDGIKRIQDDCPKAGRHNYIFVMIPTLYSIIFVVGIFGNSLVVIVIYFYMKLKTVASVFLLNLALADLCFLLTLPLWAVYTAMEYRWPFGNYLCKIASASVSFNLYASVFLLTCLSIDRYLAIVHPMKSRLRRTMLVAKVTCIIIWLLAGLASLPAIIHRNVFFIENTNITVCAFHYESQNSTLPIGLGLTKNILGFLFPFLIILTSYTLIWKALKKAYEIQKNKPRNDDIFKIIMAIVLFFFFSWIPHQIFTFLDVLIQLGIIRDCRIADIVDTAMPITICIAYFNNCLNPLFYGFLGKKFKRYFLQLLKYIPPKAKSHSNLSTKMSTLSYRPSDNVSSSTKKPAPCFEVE
The series is described as follows: Eurofins SafetyScreen panel. It is filed as binding.

The target in series [4] is T4, Muscarinic M1 (Homo sapiens, UniProt P11229).
T4 construct: Eurofins (contract screening, SafetyScreen panel) PP223
T4 sequence (P11229 1-460): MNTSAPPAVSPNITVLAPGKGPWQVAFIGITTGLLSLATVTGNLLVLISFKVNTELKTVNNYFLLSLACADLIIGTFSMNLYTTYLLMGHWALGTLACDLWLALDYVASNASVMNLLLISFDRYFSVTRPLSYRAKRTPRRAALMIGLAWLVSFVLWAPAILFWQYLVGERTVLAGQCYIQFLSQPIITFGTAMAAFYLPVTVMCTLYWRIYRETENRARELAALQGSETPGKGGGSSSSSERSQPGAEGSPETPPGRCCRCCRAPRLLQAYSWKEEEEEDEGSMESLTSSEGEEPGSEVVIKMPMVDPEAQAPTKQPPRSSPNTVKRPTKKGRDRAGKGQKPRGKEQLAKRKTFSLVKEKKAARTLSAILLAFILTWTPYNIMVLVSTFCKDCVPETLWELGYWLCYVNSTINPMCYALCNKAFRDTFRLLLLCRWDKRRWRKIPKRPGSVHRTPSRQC
Kind of series: Eurofins SafetyScreen panel. It is filed as binding.

Series [5] has as its target CYP2C9 (Homo sapiens, UniProt P11712). Kind of series: Cytochrome P450 inhibition (Eurofins). Conditions: at 10 μM; listed as 17, 10 µM.

Where a name gives a salt, the structure may show the parent alone. Some results are limits rather than exact numbers.

T1 sequence (P07550 whole entry): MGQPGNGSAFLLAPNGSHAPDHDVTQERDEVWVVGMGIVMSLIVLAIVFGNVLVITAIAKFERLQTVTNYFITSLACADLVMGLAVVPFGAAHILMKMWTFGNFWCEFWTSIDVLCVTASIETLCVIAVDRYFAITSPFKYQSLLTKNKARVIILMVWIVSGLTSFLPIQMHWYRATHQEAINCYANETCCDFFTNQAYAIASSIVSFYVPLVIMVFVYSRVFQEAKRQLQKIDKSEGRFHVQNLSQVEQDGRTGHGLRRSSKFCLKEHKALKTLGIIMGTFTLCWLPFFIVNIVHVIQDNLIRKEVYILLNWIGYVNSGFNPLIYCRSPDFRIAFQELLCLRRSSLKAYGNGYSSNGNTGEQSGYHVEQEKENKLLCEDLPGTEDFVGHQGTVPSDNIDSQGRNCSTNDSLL
T2 sequence (P25929 whole entry): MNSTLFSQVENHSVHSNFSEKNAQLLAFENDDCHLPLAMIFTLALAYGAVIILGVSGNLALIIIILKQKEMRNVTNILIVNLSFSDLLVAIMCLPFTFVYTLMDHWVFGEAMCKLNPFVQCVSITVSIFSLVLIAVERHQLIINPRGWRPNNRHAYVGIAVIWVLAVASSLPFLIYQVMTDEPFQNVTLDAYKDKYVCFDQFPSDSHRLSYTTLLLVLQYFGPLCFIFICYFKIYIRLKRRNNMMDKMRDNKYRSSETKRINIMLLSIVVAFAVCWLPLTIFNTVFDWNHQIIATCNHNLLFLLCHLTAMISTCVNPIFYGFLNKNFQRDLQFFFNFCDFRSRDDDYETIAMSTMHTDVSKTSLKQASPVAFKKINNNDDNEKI
Sequence of CYP2C9 (P11712 whole entry): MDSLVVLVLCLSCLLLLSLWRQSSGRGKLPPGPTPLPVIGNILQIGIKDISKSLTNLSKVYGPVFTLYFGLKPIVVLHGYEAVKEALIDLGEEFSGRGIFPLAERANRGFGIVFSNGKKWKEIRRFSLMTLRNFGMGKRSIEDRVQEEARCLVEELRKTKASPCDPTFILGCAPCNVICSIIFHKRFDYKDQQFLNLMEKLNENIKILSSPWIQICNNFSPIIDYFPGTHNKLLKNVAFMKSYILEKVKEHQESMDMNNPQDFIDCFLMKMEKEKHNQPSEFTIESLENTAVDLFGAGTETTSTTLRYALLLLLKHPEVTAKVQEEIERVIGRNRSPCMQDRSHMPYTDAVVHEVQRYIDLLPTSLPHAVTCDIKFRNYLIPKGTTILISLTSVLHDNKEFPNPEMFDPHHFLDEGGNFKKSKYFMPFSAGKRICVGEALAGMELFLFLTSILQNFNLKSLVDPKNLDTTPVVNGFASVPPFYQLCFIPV

With `O=S(=O)(c1cccc(F)c1)n1ccc2c(N3CCNCC3)nc3ccccc3c21` [FPPQ, 1-[(3-Fluorophenyl)sulfonyl]-4-(piperazin-1-yl)-1H-pyrrolo[3,2-c]quinoline dihydrochloride], the results for the IC50 in series [1] and in series [4] were 120 nM and 7890 nM, respectively. For the same molecule, the results for the inhibitory constant (Ki) in series [1] and in series [4] were 85 nM and 1940 nM, respectively. Further, the inhibition at 0.01 µM in series [1] (10 nM) came out at 9%. For the same molecule, the inhibition at 0.1 µM came to 43% in series [1] (0.1 μM) and 3% in series [4] (read-out: %inh). The inhibition at 1 µM in series [1] (1 μM) turned out to be 93%; in series [4] (read-out: %inh), 13%. Also, the inhibition at 10 µM in series [1] is 103%; in series [1] (additional batch) it was 99%; in series [2] it was 37%; in series [3], -4%. Besides, in series [4] (read-out: %inh), the inhibition at 100 µM was 98%. Also, the “cytochrome P450 inhibition 2C9” value in series [5] was less than 25% inh at 10 uM.

The values above are taken from paper PMC8474115 (Journal of Medicinal Chemistry, 2021).
